The source of these data is ChEMBL document CHEMBL4431386, “Potent selective monoamine oxidase B inhibition by maackiain, a pterocarpan from the roots of Sophora flavescens” (Bioorg Med Chem Lett, 2016).

Data set [1] deals with T1, Amine oxidase [flavin-containing] B (Mus musculus, UniProt Q8BW75).
T1 sequence (Q8BW75 whole entry): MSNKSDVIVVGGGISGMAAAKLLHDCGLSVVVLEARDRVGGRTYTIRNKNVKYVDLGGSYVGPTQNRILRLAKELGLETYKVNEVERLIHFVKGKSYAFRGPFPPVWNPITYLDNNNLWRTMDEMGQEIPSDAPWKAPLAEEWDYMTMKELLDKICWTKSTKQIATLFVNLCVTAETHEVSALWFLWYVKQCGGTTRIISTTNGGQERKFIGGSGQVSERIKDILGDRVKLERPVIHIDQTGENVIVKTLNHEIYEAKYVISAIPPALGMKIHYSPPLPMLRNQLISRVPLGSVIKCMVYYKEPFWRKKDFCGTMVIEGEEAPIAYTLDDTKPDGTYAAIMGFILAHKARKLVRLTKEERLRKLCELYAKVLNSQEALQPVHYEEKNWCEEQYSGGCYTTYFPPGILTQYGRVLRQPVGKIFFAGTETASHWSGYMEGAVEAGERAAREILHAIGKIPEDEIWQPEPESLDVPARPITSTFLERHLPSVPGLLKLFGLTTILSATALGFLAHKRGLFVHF
The data set can be described thus: Inhibition of mouse MAO-B preincubated for 15 mins followed by addition of kynuramine as substrate measured after 30 mins by fluorometric analysis.

Data set [2] has as its target T2, Amine oxidase [flavin-containing] B (Homo sapiens, UniProt P27338).
T2 sequence (P27338 whole entry): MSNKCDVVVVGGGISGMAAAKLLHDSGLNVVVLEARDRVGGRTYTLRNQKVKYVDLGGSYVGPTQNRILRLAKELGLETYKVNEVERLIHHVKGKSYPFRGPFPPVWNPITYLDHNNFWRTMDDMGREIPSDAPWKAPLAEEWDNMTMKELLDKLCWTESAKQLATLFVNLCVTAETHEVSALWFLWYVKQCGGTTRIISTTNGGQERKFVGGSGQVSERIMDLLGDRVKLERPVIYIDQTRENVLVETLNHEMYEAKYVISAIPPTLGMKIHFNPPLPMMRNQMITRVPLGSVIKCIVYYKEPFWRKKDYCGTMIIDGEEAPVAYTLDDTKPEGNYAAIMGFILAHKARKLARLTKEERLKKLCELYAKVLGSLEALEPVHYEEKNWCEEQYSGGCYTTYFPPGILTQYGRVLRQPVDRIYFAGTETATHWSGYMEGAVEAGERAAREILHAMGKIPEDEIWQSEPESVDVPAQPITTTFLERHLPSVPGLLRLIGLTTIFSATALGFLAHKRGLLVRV
Description: Inhibition of recombinant human MAO-B expressed in baculovirus infected BTI insect cells preincubated for 10 mins followed by addition of benzylamine as substrate. Type of data set: cell-based.

For a further data set, the species on record is Homo sapiens. The data set can be described thus: Selectivity index, ratio of IC50 for recombinant human MAO-A expressed in baculovirus infected BTI insect cells to IC50 for recombinant human MAO-B expressed in baculovirus infected BTI insect cells.
Data set [3] concerns the target T3, Amine oxidase [flavin-containing] A (Homo sapiens, UniProt P21397).
T3 sequence (P21397 whole entry): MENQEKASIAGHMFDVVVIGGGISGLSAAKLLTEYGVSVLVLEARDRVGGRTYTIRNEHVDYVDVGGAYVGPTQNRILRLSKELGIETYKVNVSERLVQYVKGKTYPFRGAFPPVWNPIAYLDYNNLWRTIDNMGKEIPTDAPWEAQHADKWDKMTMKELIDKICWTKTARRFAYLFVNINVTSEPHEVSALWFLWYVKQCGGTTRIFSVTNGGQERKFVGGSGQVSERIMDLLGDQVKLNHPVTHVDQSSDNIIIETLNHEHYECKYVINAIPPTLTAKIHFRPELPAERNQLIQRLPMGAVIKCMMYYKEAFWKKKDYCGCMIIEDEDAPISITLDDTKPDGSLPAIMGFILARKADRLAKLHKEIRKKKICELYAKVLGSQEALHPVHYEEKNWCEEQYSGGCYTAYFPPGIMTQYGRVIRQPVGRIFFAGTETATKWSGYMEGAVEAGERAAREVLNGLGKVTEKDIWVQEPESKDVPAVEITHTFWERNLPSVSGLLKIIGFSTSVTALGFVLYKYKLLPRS
Description: Inhibition of recombinant human MAO-A expressed in baculovirus infected BTI insect cells preincubated for 10 mins followed by addition of kynuramine as substrate.

The target of data set [4] is T2, Amine oxidase [flavin-containing] B. The data set can be described thus: Inhibition of recombinant human MAO-B expressed in baculovirus infected BTI insect cells assessed as residual activity at 20 uM preincubated for 10 mins followed by addition of 2 mM of benzylamine as substrate. The settings on record: read-out: Activity.
Data set [5] has the same target. Description: Time-dependent inhibition of recombinant human MAO-B expressed in baculovirus infected BTI insect cells at 20 uM pretreated with compound up to 30 mins followed by addition of benzylamine as substrate.
Data set [6] shares this target. The data set can be described thus: Reversible inhibition of recombinant human MAO-B expressed in baculovirus infected BTI insect cells assessed as residual activity at 20 uM preincubated for 10 mins followed by addition of 2 mM of benzylamine as substrate and further addition of 2 mM of benzylamine at the end of first reaction. The following applies: read-out: Activity.

For data set [7], the target named is T4, Amine oxidase [flavin-containing] A (Mus musculus, UniProt Q64133).
T4 sequence (Q64133 whole entry): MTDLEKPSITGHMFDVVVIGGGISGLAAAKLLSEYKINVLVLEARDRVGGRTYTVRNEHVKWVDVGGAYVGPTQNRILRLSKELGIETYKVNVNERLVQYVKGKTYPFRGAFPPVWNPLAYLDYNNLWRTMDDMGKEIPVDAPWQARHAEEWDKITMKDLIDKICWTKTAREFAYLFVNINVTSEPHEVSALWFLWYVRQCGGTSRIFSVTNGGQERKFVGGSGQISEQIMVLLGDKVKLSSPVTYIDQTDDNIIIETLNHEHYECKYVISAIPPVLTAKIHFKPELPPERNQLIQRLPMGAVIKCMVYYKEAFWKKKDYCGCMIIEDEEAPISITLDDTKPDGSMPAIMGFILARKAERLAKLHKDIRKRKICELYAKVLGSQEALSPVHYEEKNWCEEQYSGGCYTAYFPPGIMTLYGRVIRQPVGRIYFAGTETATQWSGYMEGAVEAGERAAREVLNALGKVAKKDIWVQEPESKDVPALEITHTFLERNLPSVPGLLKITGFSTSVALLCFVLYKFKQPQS
The data set can be described thus: Inhibition of mouse MAO-A preincubated for 15 mins followed by addition of kynuramine as substrate measured after 30 mins by fluorometric analysis.

Data set [8] has as its target T2, Amine oxidase [flavin-containing] B. The data set can be described thus: Inhibition of recombinant human MAO-B expressed in baculovirus infected BTI insect cells assessed as residual activity at 8 uM preincubated for 10 mins followed by addition of 2 mM of benzylamine as substrate. The following applies: read-out: Activity.
Data set [9] has the same target. The data set can be described thus: Reversible inhibition of recombinant human MAO-B expressed in baculovirus infected BTI insect cells assessed as residual activity at 8 uM preincubated for 10 mins followed by addition of 2 mM of benzylamine as substrate and further addition of 2 mM of benzylamine at the end of first reaction. The following applies: read-out: Activity.

Data set [10] has the same target. The data set can be described thus: Time-dependent inhibition of recombinant human MAO-B expressed in baculovirus infected BTI insect cells at 8 uM pretreated with compound up to 30 mins followed by addition of benzylamine as substrate.
The target is the same in data set [11]. The data set can be described thus: Reversible inhibition of recombinant human MAO-B expressed in baculovirus infected BTI insect cells assessed as residual activity at 1.5 uM preincubated for 10 mins followed by addition of 2 mM of benzylamine as substrate and further addition of 2 mM of benzylamine at the end of first reaction. The settings on record: read-out: Activity.

The target is the same in data set [12]. Description: Time-dependent inhibition of recombinant human MAO-B expressed in baculovirus infected BTI insect cells at 1.5 uM pretreated with compound up to 30 mins followed by addition of benzylamine as substrate.
The target is the same in data set [13]. Description: Inhibition of recombinant human MAO-B expressed in baculovirus infected BTI insect cells assessed as residual activity at 1.5 uM preincubated for 10 mins followed by addition of 2 mM of benzylamine as substrate. The following applies: read-out: Activity.
Data set [14] shares this target. The data set can be described thus: Competitive inhibition of recombinant human MAO-B expressed in baculovirus infected BTI insect cells using benzylamine as substrate by Lineweaver-Burk plot analysis.
Data set [15] has as its target T1, Amine oxidase [flavin-containing] B. Description: Competitive inhibition of mouse brain mitochondrial MAO-B using kynuramine as substrate by Lineweaver-Burk plot analysis.

SMILES strings stand for the structures. pIC50, pKi: −log10 of the molar value.

`C=C(C)[C@H](O)CC/C(C)=C/COc1ccc2ccc(=O)oc2c1`: the pIC50 – broadly, the IC50 on a negative log10 scale, so that one unit is a factor of ten – in data set [1] was 6.30.

For the compound `CC(C)=CCC/C(C)=C/COc1ccc2ccc(=O)oc2c1`, the pIC50 in data set [1] was 6.22.

Turning to `CC(C)=CCc1c(O)cc(O)c2c1O[C@H](c1ccc(O)cc1)CC2=O`, the pIC50 was less than 4.00 in data set [2] and 4.41 in data set [3]. Also, the Ratio IC50 in the data set filed under Homo sapiens is less than 0.39.

Regarding `COc1ccc2c(c1O)OC[C@H]1c3cc4c(cc3O[C@@H]21)OCO4`, the pIC50 is 4.99 in data set [2] and 4.69 in data set [3]. The activity at 20 µM in data set [4] turned out to be 26.3%; in data set [6], 54.9%. Further, the TDI result in data set [5] is reported as “Not Active”. In the data set filed under Homo sapiens, the Ratio IC50 came to 2.

With `COc1ccc(-c2coc3cc(O)c(CC=C(C)C)c(O)c3c2=O)cc1`, the negative-log IC50 (pIC50) in [1] is 6.10.

Regarding `CC(C)=CCc1c(O)c(CC=C(C)C)c2c(c1O)C(=O)C[C@@H](c1ccc(O)cc1O)O2`, the pIC50 in data set [2] and in [3] was less than 4.00 throughout.

For the compound `COc1ccc(-c2coc3cc(O)ccc3c2=O)cc1` [FORMONONETIN], the pIC50 in [2] was 4.59; in data set [1] it was 4.96; in data set [7], 4.67; in data set [3], 4.51. Also, the Ratio IC50 in the data set filed under Homo sapiens turned out to be 1.2.

For `O=c1c(-c2ccc(O)cc2)coc2cc(O)cc(O)c12` [GENISTEIN], the activity at 8 µM came out at 25.3% in data set [8] and 59.5% in [9]. Further, the TDI entry in data set [10] was “Not Active”.

Consider `Oc1ccc2c(c1)OC[C@H]1c3cc4c(cc3O[C@@H]21)OCO4` [MAACKIAIN], for which the results for the negative logarithm of the IC50 (pIC50) in data set [2] and in data set [3] were 6.17 and 4.07, respectively. The activity at 1.5 µM in [11] stood at 66%; in data set [13], 28.7%. In addition, the TDI result in data set [12] was “Not Active”. The pKi (as a rule, the negative decadic logarithm of the Ki, by convention in mol/L) in data set [14] is 7.27. For the same compound, the Ratio IC50 in the data set filed under Homo sapiens was found to be 126.

`COC(=O)/C=C/C=C/c1ccc2c(c1)OCO2` [METHYL PIPERATE] gave a pKi in data set [15] of 5.89.
